{
  "source": "patent US20050272040A1",
  "about": "“Method for increasing synaptic growth or plasticity” (priority 2002, published 2005)",
  "tested_on": "hippocampal cells",
  "experiment": "Whole-cell patch-clamp recordings of synaptic charge",
  "assay_type": "cell-based, rat",
  "conditions": "perfusion of synthetic rat VGF peptide, 0.1 μM",
  "description": "To examine the relationship between synaptic response and gene expression, an individual cell's electrophysiological response to BDNF was examined in conjunction with single-cell RT-PCR for Arc. […] Whole-cell patch-clamp recordings from 16 cells verified 0.8- to 4.5-fold increase in synaptic charge following 20 minutes BDNF exposure. […] A group of BDNF-treated cells presenting a minimal synaptic response was apparent. This group was categorized as non-responders (FIG. 1B) and the other cells showing a greater response to BDNF were classified as responders. To determine whether cellular basal activity influences the response to BDNF, the average synaptic charge pre-BDNF of the responders (36±13.1 pC, n=7) versus the non-responders (23.2±6.6 pC, n=9) was compared.\nTo explore a functional role for VGF in neuromodulation, whole-cell patch-clamp recordings on hippocampal cells were performed in the presence of synthetic VGF peptides. The electrophysiological profile of VGF peptides on hippocampal cells was similar to that observed for BDNF (Levine et al. (1996) supra). […] Enhanced synaptic activity was maintained for up to 25 minutes in the continued presence of Thr-Leu-Gln-Pro-62 (SEQ ID NO:14). […] The effects of both Ala-Gln-Glu-Glu-30 (SEQ ID NO:16) and Thr-Leu-Gln-Pro-62 (SEQ ID NO:14) peptides were dose-dependent, saturating at 0.1 μM.\nWhole-cell patch clamp recordings were performed after 10-14 days in culture. Currents were recorded with an Axoclamp 200 amplifier, digitized at 2.5 kHz with an INDEC IDA 15125 interface, filtered at 5 kHz and stored. Recording parameters and stimulus protocols were controlled by custom software written with Borland C++ that utilizes device driver libraries supplied by INDEC. Data analysis programs were written with Microsoft Visual Basic. The. external bath solution for voltage clamp recordings was (in mM) 1.67 CaCl2, 1 MgCl2, 5.36 KCl, 137 NaCl, 17 glucose, 10 HEPES and 20 sucrose (neuron recording solution, NRS). The pipette solution contained (in mM) 105 Cs-methanesulfonate, 17.5 CsCl, 10 HEPES, 0.2 EGTA, 8 NaCl, 2 Mg-ATP, 2 Na-ATP, 0.3 Na-GTP, 20 phosphocreatinine, and 50 U/ml creatinine phosphokinase. All recordings were made at room temperature. The typical range of pipette resistance was 3-5 MΩ. Cell capacitance was 10-20 pF and access resistance was 7-20 MΩ. Vacuum perfusion system contained BDNF (50 ng/ml, Preprotech, Princeton, N.J.), NRS as a control or VGF peptides (0.1 μM=740 ng/ml). Three synthetic rat VGF peptides were used: Leu-Glu-Gly-Ser-28 (SEQ ID NO:15) amino acids 285-312 (amidated), Thr-Leu-Gln-Pro-62 (SEQ ID NO:14) amino acids 556-617 and Ala-Gln-Glu-Glu-30 (SEQ ID NO:16) amino acids 588-617. Each data point represents a cell from a separate dish and at least three different platings were used for each condition.\nData were analyzed by integrating the synaptic currents for each sweep (synaptic charge). The charge measurements for all sweeps in a 1 min period were averaged (binned). Baseline is considered the average synaptic charge during the 2 min period (−2 to 0 min) in NRS immediately prior to BDNF or VGF application. Fold increases were then determined by dividing the synaptic charge during BDNF or VGF exposure by the baseline. Recordings were rejected if either the 0-5 min binned time period or 5-10 min binned time period after switching during BDNF or VGF exposure was 2×SEM below baseline, indicating “run down”.",
  "data": [
    {"substance": "Leu-Glu-Gly-Ser-28: synthetic rat VGF peptide, amino acids 285-312 (amidated), N-terminal region", "values": [
      {"measurement": "Effect on synaptic charge", "value": "no change in synaptic charge"}
    ]}
  ]
}
